Test [1] deals with medial prefrontal dopaminergic terminal-lesioned rat. Description: Object recognition test using medial prefrontal dopaminergic terminal-lesioned rat. Type of test: in vivo. The settings on record: lesioned rats. The source says: The object recognition test is known as an evaluation system of cognitive function utilizing properties of animal to willingly explore a new object (Behavioural Brain Research 31, p. 47 (1988)). An animal is placed in an apparatus containing two identical objects and allowed to freely explore (acquisition trial), after which one of the objects in the apparatus is changed to one having a different shape (novel object) and the animal is allowed to freely explore (test trial). […] In this test, such property is evaluated as an index of cognitive function.
CD(SD)IGS rat (male, Charles River) received Pentobarbital sodium salt (Tokyo Chemical Industry Co., Ltd., 30 mg/kg) intraperitoneally and fixed on a brain stereotaxis apparatus (SR-6, Narishige kagaku kikai kenkyusho) under anesthesia. Using a microinjection pump (CMA/100, Carnegie Medicine), dopaminergic neurotoxin, 6-hydroxidopamine hydrochloride (6-OHDA, Sigma-Aldrich) was injected over about 1 min at (1) 3.2 mm anterior, 0.8 mm left lateral and 3.0 mm ventral, (2) 3.2 mm anterior, 0.8 mm right lateral and 3.0 mm ventral, (3) 3.2 mm anterior, 0.8 mm left lateral and 5.0 mm ventral, (4) 3.2 mm anterior, 0.8 mm right lateral and 5.0 mm ventral, (5) 4.2 mm anterior, 0.8 mm left lateral and 4.0 mm ventral, and (6) 4.2 mm anterior, 0.8 mm right lateral and 4.0 mm ventral, each from the bregma suture of the rats to lesion dopaminergic terminals in the medial prefrontal cortex. 6-OHDA was prepared at a concentration of 4 μg/μL, injected at a flow rate of 1 μL/min over 1 min, and stood for 1 min. In the sham operated group, a stainless cannula was inserted into the same coordinates. […] The dosing volumes of pentobarbital sodium and desipramine hydrochloride were calculated at 1 and 5 mL/kg based on the body weight measured on the administration day. […]
To familiarize the rats with the experimenter, they were handled for 3 days before the test. […] The time spent in exploration (sniffing) each object of the rats in the test trial was measured, and the ratio (%) relative to the total exploration time was calculated. […]

Test [2] deals with NAC61-95-treated Slc:ICR mice (α-synucleinopathy model). Put plainly: Spontaneous alternation task (Y-maze) in NAC61-95-treated α-synucleinopathy model mice. Type of test: in vivo, mouse. The settings on record: NAC61-95 mice. The protocol:
(§1) By reference to articles (Science, 338, p. 949 (2012); Behavioral Brain Reexplore, 208, p. 274 (2010)), an animal model capable of confirming a treatment and/or prophylactic effect on α-synucleinopathy, for example, Lewy body disease (for example, cognitive impairment in Parkinson's disease, diffuse Lewy body disease, dementia with lewy bodies, movement disorder associated with Lewy body disease and the like) was generated as follows.
The cognitive function was evaluated using a spontaneous alternation task. The spontaneous alternation task is known as an evaluation system of cognitive function utilizing properties of animal to willingly explore a novel environment (Neuroscience and Biobehavioral Reviews 28, p. 497 (2004)). […] The motor function was evaluated by analyzing gait function in natural walk conditions using a gait analysis system. […]
Mice were brought into the experiment room on the previous day of test for habituation. […] Entry of all four limbs of a mouse into one arm was defined as entry into arm, and the order of entry of the mice into the arm was recorded. A behavior of continuous entry into all three different arms was defined as spontaneous alternation behavior, and the percentage of alternation behavior was calculated by the following calculation formula. […]

Test [3] shares this test system. Description: Gait analysis (CatWalk XT) in NAC61-95-treated α-synucleinopathy model mice. Type of test: in vivo, mouse. The settings on record: NAC61-95 mice. Here is the method: as §1
The cognitive function was evaluated using a spontaneous alternation task. The spontaneous alternation task is known as an evaluation system of cognitive function utilizing properties of animal to willingly explore a novel environment (Neuroscience and Biobehavioral Reviews 28, p. 497 (2004)). That is, if the animal remembers the arm previously entered in exploration in a Y-maze apparatus, the behavior of spontaneous entry into a different arm is expressed by an alternation behavior rate, and used as an index of cognitive function. The motor function was evaluated by analyzing gait function in natural walk conditions using a gait analysis system.
NAC61-95 (custom, Sigma) was dissolved in PBS to prepare 4 μg/μL NAC61-95 solution.
Under pentobarbital (Somnopentyl, Kyoritsuseiyaku, 50 mg/kg, i.p.) anesthesia, 5 μL of NAC61-95 solution was injected using a Hamilton syringe (10 μL) equipped with a double needle (27G, needle length 3 mm) into the right lateral cerebral ventricle of Slc:ICR mice (male, Japan SLC) over about 1 min, and stood for 1 min to induce cognitive impairment and/or movement disorder. The sham treatment group was injected with 5 μL of PBS.
A gait analysis system (CatWalk XT, ver. 9.1, Noldus) was used. The system was constituted of a walkway with pressure dependent luminescence glass and a light source, luminescence ceiling, highly sensitive highspeed camera and analysis software, and the gait was analyzed by digitizing the brightness of the light emitted by the pressure dependent luminescence glass in response to the pressure. The gait data was automatically recorded and analyzed by the analysis software only when the mice moved straight forward without stopping in the predetermined area on the walkway.
The mice were brought into the experiment room without light and habituated for not less than 1 hr. The mice were placed in the apparatus, and allowed to walk freely until 6 running data were obtained for each mouse. The earliest three analyzable running data were used, and mean was calculated. By reference to an article relating to movement disorder in Parkinson's disease animal model (Journal of Biomedical Science 17, p. 9 (2010)), a decrease in the maximum contact area (Total surface area of certain paw at the moment of maximum paw contact) and print area (total surface area of the paw print), as well as change in the gait pattern (sequence of contact of 4 paws) were used as indices of movement disorder.
At 60 min before the test, compound (I) (suspended in 0.5 w/v % aqueous MC solution, and prepared to 0.5 mL per 100 g body weight of mouse on the administration day) was orally administered at a dose of 0.1 mg/kg, or a vehicle (0.5 w/v % aqueous MC solution) free of the test compound was orally administered at 0.5 mL per 100 g body weight of mice on the administration day.

Test [4] concerns SLC: ICR male mice injected with α-synuclein or NAC61-95. Description: α-Synucleinopathy model (α-synuclein or NAC61-95 injected mice), behavioral pharmacological evaluation, Experimental Example 2. In kind it is in vivo, mouse. Particulars: appropriate dose, a few hours after administration; written in present tense, no data. The source says: By reference to articles (Science, 338, p. 949 (2012); Behavioral Brain Reexplore, 208, p. 274 (2010)), an animal model capable of confirming a treatment and/or prophylactic effect on α-synucleinopathy, for example, Lewy body disease (for example, cognitive impairment in Parkinson's disease, diffuse Lewy body disease, dementia with lewy bodies, movement disorder associated with Lewy body disease and the like) is generated.
An appropriate dose of a solution of α-synuclein (rPeptide, S-100) or NAC61-95 (custom, Sigma) dissolved in phosphate buffered saline (PBS) is injected to the striatum or lateral cerebral ventricle of SLC: ICR male mice to induce cognitive impairment and/or movement disorder. After confirmation of the pathology induction, an appropriate dose of compound (I) is administered to the mice.

The mark [5] stands for this setting: 0.3 mg/kg orally 60 min before test, 3 min test trial, mean±standard error.
Setting [6] is: 0.1 mg/kg orally 60 min before test, mean±standard error.

Take `Cc1ccc(C(=O)Nc2nc(-c3ccco3)c(C(=O)C3CCOCC3)s2)cn1` [compound (I)]: in test [1] (setting [5]), the “ratio (%) of exploration time, familiar object” value stood at 34.97 ± 2.88% and the “ratio (%) of exploration time, novel object” value came to 65.03 ± 2.88%. In test [1] (0.3 mg/kg orally, paired t-test p<0.001), the “exploration time of the novel object compared with the familiar object” value was “significantly longer”. The “alternation behavior (%)” value in test [2] (0.1 mg/kg orally 60 min before test, Y-maze 7 min, mean±standard error) was determined as 69.5 ± 2.4%. The “alternation behavior compared to the vehicle administration group” value in test [2] (0.1 mg/kg orally, Student's t-test p<0.01) is “significantly high”. In addition, the “gait pattern AA” value in test [3] (AA: right forepaw → right hindpaw → left forepaw → left hindpaw, 0.1 mg/kg orally, mean±standard error) was 0.00 ± 0.00. For the same compound, the “gait pattern AB” value in test [3] (AB: right forepaw → left hindpaw → left forepaw → right hindpaw, 0.1 mg/kg orally, mean±standard error) was 81.86 ± 4.25. Further, the “gait pattern CA” value in test [3] (CA: right forepaw → left forepaw → right hindpaw → left hindpaw, 0.1 mg/kg orally, mean±standard error) worked out at 13.39 ± 4.00. Besides, the “gait pattern CB” value in test [3] (CB: right forepaw → left hindpaw → right hindpaw → left forepaw, 0.1 mg/kg orally, mean±standard error) was 4.75 ± 1.79. In addition, the “change of gait pattern compared to the vehicle administration group” value in test [3] (0.1 mg/kg orally) was “an increase in pattern AB and a decrease in pattern CB”. In test [3] (setting [6]), the “maximum contact area, left forepaw” value was determined as 0.30 ± 0.02; the “maximum contact area, left hindpaw” value is given as 0.31 ± 0.02; the “maximum contact area, right forepaw” value was 0.29 ± 0.02; the “maximum contact area, right hindpaw” value came to 0.30 ± 0.02. In test [3] (setting [6]), the “print area, left forepaw” value was determined as 0.40 ± 0.02; the “print area, left hindpaw” value is given as 0.38 ± 0.03; the “print area, right forepaw” value turned out to be 0.39 ± 0.02; the “print area, right hindpaw” value came out at 0.37 ± 0.03. In addition, the “maximum contact area and gait area of the left hindpaw compared to the vehicle administration group” value in test [3] (0.1 mg/kg orally, p<0.05) is on record as “significantly large”. Also, the “maximum contact area and gait area of the right forepaw compared to the vehicle administration group” value in test [3] (0.1 mg/kg orally, p<0.1) is “tendency of the maximum contact area and gait area of the right forepaw being large”. For the same compound, the “pathology (cognitive impairment and/or movement disorder) by Y-maze, spontaneous motor activity, CATWALK” value in test [4] was “Improvement of the pathology”.

Values taken from patent US20210393606A1, “THERAPEUTIC AGENT FOR FRONTAL LOBE DYSFUNCTION” (KYOWA HAKKO KIRIN CO., LTD., priority 2015, published 2021).
